ChEMBL document CHEMBL4316596, “Antimicrobial Peptides with High Proteolytic Resistance for Combating Gram-Negative Bacteria” (J Med Chem, 2019)
Values after ≈ are worked out from the molar mass of the structure shown. Active and inactive are the calls of the source. The calls are words filed in the database; no cut-off is given here.

Columns and labels:
[1] = test system: Escherichia coli; experiment: Antimicrobial activity against Escherichia coli ATCC 25922 after 24 hrs by NCCLS-protocol based assay; format: functional; conditions: ATCC 25922, 24 h
[2] = test system: Escherichia coli; experiment: Antimicrobial activity against Escherichia coli 078 after 24 hrs by NCCLS-protocol based assay; format: functional; conditions: Escherichia coli, 078, 24 h
[3] = test system: Pseudomonas aeruginosa; experiment: Antimicrobial activity against Pseudomonas aeruginosa CICC 21630 clinical isolates after 24 hrs by NCCLS-protocol based assay; format: functional; conditions: CICC 21630, 24 h
[4] = test system: Salmonella typhimurium; experiment: Antimicrobial activity against Salmonella typhimurium C7731 after 24 hrs by NCCLS-protocol based assay; format: functional, Salmonella enterica subsp. enterica serovar Typhimurium; conditions: Salmonella enterica, C7731, 24 h
[5] = Antimicrobial activity against Salmonella pullorum C7913 after 24 hrs by NCCLS-protocol based assay; format: functional, Salmonella enterica subsp. enterica serovar Pullorum; conditions: Salmonella enterica, C7913, 24 h
[6] = test system: HEK-293T; experiment: Cytotoxicity against HEK293T cells assessed as cell death after 18 to 24 hrs by MTT assay; format: cell-based; conditions: Homo sapiens
[7] = Cytotoxicity against IPECJ2 cells assessed as cell death after 18 to 24 hrs by MTT assay; format: cell-based; conditions: Sus scrofa, IPEC-J2
[8] = test system: Escherichia coli; experiment: Bactericidal activity against Escherichia coli ATCC 25922 incubated for 4 hrs followed by culture spread on agar plates and cultured overnight; format: functional; conditions: ATCC 25922, 4 h, read-out: MBC>99.9
[9] = Selectivity ratio of IC50 for mouse RAW264.7 cells to geometric mean of the peptide MBC for bacteria
[10] = Selectivity ratio of IC50 for HEK293T cells to geometric mean of the peptide MBC for bacteria
[11] = Selectivity ratio of IC50 for pig IPECJ2 cells to geometric mean of the peptide MBC for bacteria
[12] = test system: Escherichia coli; experiment: Bactericidal activity against Escherichia coli ATCC 25922 incubated for 4 hrs followed by culture spread on agar plates and cultured overnight in presence of NaCl; format: functional; conditions: ATCC 25922, 4 h, read-out: MBC>99.9
[13] = test system: Escherichia coli; experiment: Bactericidal activity against Escherichia coli ATCC 25922 incubated for 4 hrs followed by culture spread on agar plates and cultured overnight in presence of KCl; format: functional; conditions: ATCC 25922, 4 h, read-out: MBC>99.9
[14] = test system: Escherichia coli; experiment: Bactericidal activity against Escherichia coli ATCC 25922 incubated for 4 hrs followed by culture spread on agar plates and cultured overnight in presence of 50% serum albumin; format: functional; conditions: ATCC 25922, 4 h, read-out: MBC>99.9
[15] = test system: Escherichia coli; experiment: Bactericidal activity against Escherichia coli ATCC 25922 incubated for 4 hrs followed by culture spread on agar plates and cultured overnight in presence of 1 mg/ml trypsin; format: functional; conditions: ATCC 25922, 4 h, read-out: MBC>99.9
[16] = test system: Escherichia coli; experiment: Bactericidal activity against Escherichia coli ATCC 25922 incubated for 4 hrs followed by culture spread on agar plates and cultured overnight in presence of 4 mg/ml chymotrypsin; format: functional; conditions: ATCC 25922, 4 h, read-out: MBC>99.9
[17] = test system: Escherichia coli; experiment: Bactericidal activity against Escherichia coli ATCC 25922 incubated for 4 hrs followed by culture spread on agar plates and cultured overnight in presence of 2 mg/ml chymotrypsin; format: functional; conditions: ATCC 25922, 4 h, read-out: MBC>99.9
[18] = test system: Escherichia coli; experiment: Bactericidal activity against Escherichia coli ATCC 25922 incubated for 4 hrs followed by culture spread on agar plates and cultured overnight in presence of 0.5 mg/ml chymotrypsin; format: functional; conditions: ATCC 25922, 4 h, read-out: MBC>99.9
[19] = test system: Escherichia coli; experiment: Antibacterial activity against Escherichia coli ATCC 25922 infected in ICR mouse assessed as log reduction in bacterial cells in spleen at 5 mg/kg, ip administered at 5 mg/kg, ip dosed at 0.5, 2, 4 and 8 hrs post-infection; format: functional
[20] = test system: Escherichia coli; experiment: Antibacterial activity against Escherichia coli ATCC 25922 infected in ICR mouse assessed as log reduction in bacterial cells in liver at 5 mg/kg, ip administered at 5 mg/kg, ip dosed at 0.5, 2, 4 and 8 hrs post-infection; format: functional
[21] = test system: Escherichia coli; experiment: Antibacterial activity against Escherichia coli ATCC 25922 infected in ICR mouse assessed as log reduction in bacterial cells in peritoneal cavity at 5 mg/kg, ip administered at 5 mg/kg, ip dosed at 0.5, 2, 4 and 8 hrs post-infection; format: functional
[22] = test system: Escherichia coli; experiment: Antibacterial activity against Escherichia coli ATCC 25922 infected in ICR mouse assessed as mouse survival at 5 mg/kg, ip dosed at 0.5, 2, 4 and 8 hrs post-infection; format: functional; conditions: ATCC 25922, ip
[23] = test system: Escherichia coli; experiment: Bactericidal activity against Escherichia coli K88 incubated for 4 hrs followed by culture spread on agar plates and cultured overnight; format: functional; conditions: K88, 4 h, read-out: MBC>99.9
[24] = test system: Pseudomonas aeruginosa; experiment: Bactericidal activity against Pseudomonas aeruginosa ATCC 27853 incubated for 4 hrs followed by culture spread on agar plates and cultured overnight; format: functional; conditions: ATCC 27853, 4 h, read-out: MBC>99.9
[25] = test system: Pseudomonas aeruginosa; experiment: Bactericidal activity against Pseudomonas aeruginosa PAO1 incubated for 4 hrs followed by culture spread on agar plates and cultured overnight; format: functional; conditions: PAO1, 4 h, read-out: MBC>99.9
[26] = test system: Pseudomonas aeruginosa; experiment: Bactericidal activity against Pseudomonas aeruginosa CICC 21630 clinical isolates incubated for 4 hrs followed by culture spread on agar plates and cultured overnight; format: functional; conditions: CICC 21630, 4 h, read-out: MBC>99.9
[27] = test system: Pseudomonas aeruginosa; experiment: Bactericidal activity against Pseudomonas aeruginosa 26305 clinical isolates incubated for 4 hrs followed by culture spread on agar plates and cultured overnight; format: functional; conditions: Pseudomonas aeruginosa, 26305, 4 h; read-out: MBC>99.9
[28] = test system: Pseudomonas aeruginosa; experiment: Bactericidal activity against Pseudomonas aeruginosa CICC 21625 clinical isolates incubated for 4 hrs followed by culture spread on agar plates and cultured overnight; format: functional; conditions: CICC 21625, 4 h, read-out: MBC>99.9
[29] = test system: Acinetobacter baumannii; experiment: Bactericidal activity against Acinetobacter baumannii incubated for 4 hrs followed by culture spread on agar plates and cultured overnight; format: functional; conditions: read-out: MBC>99.9
[30] = molecular target: T1, Chymotrypsin (Homo sapiens, UniProt Q99895+P17538+P40313+Q6GPI1); experiment: Stability of the compound assessed as chymotrypsin (unknown origin)-mediated compound hydrolysis by measuring compound helicity by CD spectroscopy; format: ADME, protein assay
[31] = Stability of the compound assessed as pepsin (unknown origin)-mediated compound hydrolysis by measuring compound helicity by CD spectroscopy; format: ADME; conditions: human
[32] = test system: Escherichia coli; experiment: Bactericidal activity against Escherichia coli ATCC 25922 incubated for 4 hrs followed by culture spread on agar plates and cultured overnight in presence of 0.125 to 4 mg/ml proteinase K; format: functional, organism-based
[33] = test system: Escherichia coli; experiment: Induction of outer membrane permeabilization in Escherichia coli ATCC 25922 at 1 uM by NPN-dye based assay relative to control
[34] = test system: Escherichia coli; experiment: Induction of cytoplasmic membrane depolarization in Escherichia coli ATCC 25922 at 2 uM up to 5000 secs by DiSC3-5 dye-based fluorescence spectrophotometric method; format: functional, organism-based
[35] = Hemolytic activity against human RBC at 1 to 128 uM after 1 hr; format: ADME, cell-based, Erythrocyte; conditions: red blood cells (erythrocytes), read-out: Activity
[36] = molecular target: T1, Chymotrypsin; experiment: Stability of the compound assessed as chymotrypsin (unknown origin)-mediated compound hydrolysis after 8 hrs by SDS-PAGE analysis; format: ADME, protein assay
[37] = Stability of the compound assessed as Tritirachium album proteinase K-mediated compound hydrolysis after 8 hrs by SDS-PAGE analysis; format: ADME; conditions: parengyodontium album
[38] = Stability of the compound assessed as Tritirachium album proteinase K-mediated compound hydrolysis by measuring compound helicity by CD spectroscopy; format: ADME; conditions: parengyodontium album

Compound | MIC95 [1] [µM] | MIC95 [2] [µM] | MIC95 [3] [µM] | MIC95 [4] [µM] | MIC95 [5] [µM] | IC50 [6] [µM] | MBC [8] [µM] | Ratio [9] | Ratio [10] | Ratio [11] | MBC [12] [µM] | MBC [13] [µM] | MBC [14] [µM] | MBC [15] [µM] | MBC [16] [µM] | MBC [17] [µM] | MBC [18] [µM] | MBC [23] [µM] | MBC [24] [µM] | MBC [25] [µM] | also measured
H-LRPLLRPLLRPLLRPLLRPLLRPLLRPL-NH2 | 1 | 1 | 2 | 2 | 1 | 19.2 | 2 | 0.89 | 7.42 | 4.11 | 4 | 2 | 16 | 2 | > 64 | > 64 | 2 | 1 | 4 | 2 | IC50 [7]: 10.7 µM; log(activity) [19]: 1; log(activity) [20]: 1; log(activity) [21]: 1; survival at 5 mg/kg [22]: 37.5%; MBC [26]: 4 µM; MBC [27]: 8 µM; MBC [28]: 8 µM; MBC [29]: 1 µM; Stability [30]: Unstable; Stability [31]: Unstable
H-IRPIIRPIIRPIIRPIIRPIIRPIIRPI-NH2 | 1 | 1 | 32 | 1 | 2 | 324 | 2 | 1136.22 | 65.19 | 25.25 | 8 | 2 | 16 | 2 | 2 | 2 | 2 | 1 | 8 | 8 | IC50 [7]: 126 µM; log(activity) [19]: 1.6; log(activity) [20]: 2; log(activity) [21]: 5; survival at 5 mg/kg [22]: 75%; Activity [32]: Active; Activity [33]: >50%; Activity [34]: Active; MBC [26]: 32 µM; MBC [27]: 64 µM; MBC [28]: 64 µM; MBC [29]: 1 µM; hemolysis at 1 h, up to 128 µM [35]: < 5%; Stability [36]: Stable; Stability [37]: Stable; Stability [38]: Unstable
CC[C@H](C)[C@H](NC(=O)CN)C(=O)NCC(=O)N[C@@H](C)C(=O)N[C@H](C(=O)N[C@@H](CC(C)C)C(=O)N[C@@H](CCCCN)C(=O)N[C@H](C(=O)N[C@@H](CC(C)C)C(=O)N[C@H](C(=O)N[C@H](C(=O)NCC(=O)N[C@@H](CC(C)C)C(=O)N1CCC[C@H]1C(=O)N[C@@H](C)C(=O)N[C@@H](CC(C)C)C(=O)N[C@H](C(=O)N[C@@H](CO)C(=O)N[C@@H](Cc1c[nH]c2ccccc12)C(=O)N[C@H](C(=O)N[C@@H](CCCCN)C(=O)N[C@@H](CCCNC(=N)N)C(=O)N[C@@H](CCCCN)C(=O)N[C@@H](CCCNC(=N)N)C(=O)N[C@@H](CCC(N)=O)C(=O)N[C@@H](CCC(N)=O)C(N)=O)[C@@H](C)CC)[C@@H](C)CC)[C@@H](C)O)[C@@H](C)O)C(C)C)C(C)C [MELITTIN] | 2 (≈ 5.69 µg/mL) | 0.5 (≈ 1.42 µg/mL) | 4 (≈ 11.4 µg/mL) | 1 (≈ 2.85 µg/mL) | 2 (≈ 5.69 µg/mL) | 2.48 | 2 (≈ 5.69 µg/mL) | 0.96 | 1.14 | 1.31 | 4 | 2 | 64 | 16 | > 64 | > 64 | > 64 | 1 (≈ 2.85 µg/mL) | 4 (≈ 11.4 µg/mL) | 2 (≈ 5.69 µg/mL) | Activity [33]: Active; Activity [34]: Active; MBC [26]: 4 µM (≈ 11.4 µg/mL); MBC [27]: 2 µM (≈ 5.69 µg/mL); MBC [28]: 4 µM (≈ 11.4 µg/mL); MBC [29]: 1 µM (≈ 2.85 µg/mL)
H-LKPLLKPLLKPLLKPLLKPLLKPLLKPL-NH2 | 0.5 | 2 | 2 | 2 | 2 | 47.4 | 1 | 0.58 | 17.49 | 9.01 | 8 | 1 | 64 | 1 | > 64 | 1 | 1 | 1 | 2 | 1 | IC50 [7]: 24.4 µM; log(activity) [19]: 1; log(activity) [20]: 1; log(activity) [21]: 1; survival at 5 mg/kg [22]: 37.5%; MBC [26]: 8 µM; MBC [27]: 16 µM; MBC [28]: 16 µM; MBC [29]: 1 µM; Stability [30]: Unstable; Stability [31]: Unstable
H-IKPIIKPIIKPIIKPIIKPIIKPIIKPI-NH2 | 8 | 16 | > 64 | 64 | 64 | 5920 | 16 | 75.44 | 162.49 | 9.46 | > 128 | 32 | > 128 | 16 | 16 | 16 | 16 | 2 | > 64 | > 64 | IC50 [7]: 345 µM; Activity [32]: Active; MBC [26]: > 64 µM; MBC [27]: > 64 µM; MBC [28]: > 64 µM; MBC [29]: 2 µM; hemolysis at 1 h, up to 128 µM [35]: < 5%; Stability [36]: Stable; Stability [37]: Stable; Stability [38]: Unstable
